Measurements published in patent US6953786B2, “Compositions comprising plant-derived polyphenolic compounds and inhibitors of reactive oxygen species and methods of using thereof” (The Regents of the University of California, priority 2002, dated 2005).

What was measured:
[1] = system: Mia PACA-2 cells; assay: Mitochondrial membrane potential, DiOC6(3) retention; type: cell-based, human
Method: (§1) In order to determine the effects polyphenolic compounds have on mitochondrial membrane potential, the retention of the dye 3,3′-dihexyloxacarbocyanine (DiOC6(3)) was measured as described by Pastorino J G, et al. (1998) J Biol Chem 273:7770-7775, which is herein incorporated by reference. BSp73AS cells were cultured for 6 hours in the absence (control) or presence of 0, 12, 24, 50, and 100 μM quercetin and trans-resveratrol. The cells were loaded with 1 μM DiOC6(3) during the last 30 minutes of treatment with a polyphenolic compound (or vehicle). The cells were then collected and pelleted by centrifugation. The supernatant was removed and the pellet was washed twice with PBS by alternate centrifugation and resuspension. The pellet was then lysed by addition of 1 ml of H2O and homogenized. The concentration of DiOC6(3) was read on a Perkin-Elmer LS-5 fluorescence spectrometer at 488 nm excitation and 500 nm emission. An aliquot of the cells was used for determining the DiOC6(3) fluorescence that was retained by the cells.
Mia PACA-2 cells were cultured for 72 hours in the presence of serum and trans-resveratrol or genistein in the presence or absence of DPI or Tiron. Mitochondrial membrane potential was measured as described above.

[2] = system: BSp73AS cells; assay: as above; type: cell-based, rat; conditions: 6 hours (FIG. 10A)
Method: as §1

[3] = system: caspase-3; assay: Caspase-3 activity, fluorogenic assay with DEVD-AMC; type: cell-based, rat; conditions: BSp73AS, up to 6 hours, 100 μM, no serum (FIGS. 6B, 6C)
Method: To determine whether a polyphenolic compound activates caspase-3 activity in a time-dependent manner, the following assay was conducted. BSp73AS cells were cultured for 0, 1, 3, and 6 hours and Mia PACA-2 cells were cultured in the absence of serum or growth factors for 0, 1, 4, 6, and 24 hours in the presence of 100 μM or quercetin, trans-resveratrol, rutin, or control. Caspase-3 activity was measured in cell lysates with a fluorogenic assay using DEVD-AMC as a substrate. The results were normalized to the DEVDase activity in untreated cells.
To determine whether quercetin activates caspase-3 activity in a dose-dependent manner, the following assay was conducted. Cells were cultured for 6 hours in the absence of serum or growth factors in the presence of 0, 10, 20, 50, and 100 μM of quercetin. Caspase-3 activity was measured in cell lysates with a fluorogenic assay using DEVD-AMC as a substrate. The results were normalized to the DEVDase activity in untreated cells.

[4] = system: BSp73AS cells; assay: Oligonucleosomal DNA fragmentation (agarose gel); type: cell-based, rat; conditions: 6 hours, 100 μM, no serum
Method: To confirm the apoptosis in vivo results, the effects of quercetin, rutin, and trans-resveratrol in other apoptosis assays in Mia PACA-2 cells and BSp73AS cells in culture were conducted. BSp73AS cells are derived from a rat pancreatic carcinoma and both Mia PACA-2 and BSp73AS cells have mutated p53 and express K-ras. Human pancreatic carcinoma cell line Mia PACA-2 and rat pancreatic carcinoma BSp73AS were cultured in Dulbecco's Modified Eagle's Medium supplemented with 10% heat inactivated FBS, penicillin G (100 U/ml) and streptomycin ([…]) in a humidified atmosphere comprising 5% (v/v) CO2. When cells were 90% confluent they were detached, washed with alternating centrifugation and resuspension, plated and incubated in the same media without FBS and with the indicated concentrations of polyphenolic compounds or vehicle for up to 96 hours. Oligonucleotide DNA fragmentation, annexin staining, and PARP proteolysis assays were conducted as follows: BSp73AS pancreatic cancer cells were cultured for 6 hours in the presence or absence of 100 μM of rutin, quercetin, or trans-resveratrol. DNA was isolated as described by Gukovskaya AS, et al. (1997) Clin Invest 100: 1853-1862, which is herein incorporated by reference. […]

[5] = system: PARP; assay: PARP proteolysis (Western blot); type: cell-based, human; conditions: Mia PACA-2, 24 hours, 100 μM
Method: BSp73AS cells were cultured for 6 hours and Mia PACA-2 cells were cultured for 24 hours in the presence or absence of 100 μM of each rutin, quercetin or trans-resveratrol and with or without 50 μM of each […]. The cells were washed twice with PBS and lysed by incubating for 20 minutes at 4° C. in lysis buffer comprising 0.15 M NaCl, 50 mM Tris (pH 7.2), 1% deoxycholic acid (wt/vol), 1% Triton X-100 (wt/vol), 0.1% […] (wt/vol) and 1 mM PMSF, as well as 5 μg/ml each of protease inhibitors, pepstatin, leupeptin, chymostatin, antipain, and aprotinin. Then the cell lysates were centrifuged for 20 minutes at 15,000 g at 4° C. The supernatants were separated by 4-20% SDS-PAGE for 2 hours at 120 V using precast Tris-glycine gels and a Mini-Cell gel apparatus (Novex, San Diego, Calif.). Separated proteins were electrophoretically transferred to a nitrocellulose membrane for 2 hours at 30 V using a Novex Blot Module (Novex, San Diego, Calif.). Nonspecific binding was blocked by 1 hour incubation of nitrocellulose membranes in 5% (wt/vol) nonfat dry milk in Tris-buffered saline (TBS; pH 7.5). Blots were then incubated overnight at 4° C. with rabbit polyclonal antibody against poly (ADP-ribose) polymerase (PARP) (Santa Cruz Biotechnology, Santa Cruz, Calif.) (1;3,000) in an antibody buffer comprising (1% (wt/vol) non-fat dry milk in TTBS (0.05% vol/vol) Tween-20 in TBS), washed 3 times with TTBS and finally incubated for 1 hour with a peroxidase-labeled secondary antibody in the antibody buffer. Blots were developed for visualization using ECL detection kit. To test for equal protein loading, the blots were stripped and re-probed with an antibody against tubulin. When processing of a protein was measured, a decrease in unprocessed full-length form was measured concomitantly with the increase in the cleaved, active form. The experiment was repeated 3 times with similar results.

[6] = Mia PACA-2, 72 hours, in the presence of serum (FIG. 11)
[7] = Mia PACA-2, no serum (FIG. 10B)

O=c1c(-c2ccc(O)cc2)coc2cc(O)cc(O)c12 [genistein]
mitochondrial membrane potential [1, 6]: no effects on mitochondrial membrane potential
mitochondrial membrane potential [1, 7]: caused dissipation of the mitochondrial membrane potential
mitochondrial membrane potential [2]: caused dissipation of the mitochondrial membrane potential

O=c1c(O)c(-c2ccc(O)c(O)c2)oc2cc(O)cc(O)c12 [quercetin]
caspase-3 activation [3]: caused caspase-3 activation
mitochondrial membrane potential [1, 7]: caused dissipation of the mitochondrial membrane potential
mitochondrial membrane potential [2]: caused dissipation of the mitochondrial membrane potential
oligonucleosomal DNA fragmentation [4]: caused an increase
PARP cleavage [5]: cleaved to its activated form

Oc1ccc(/C=C/c2cc(O)cc(O)c2)cc1 [trans-resveratrol]
caspase-3 activation [3]: caused caspase-3 activation
mitochondrial membrane potential [1, 6]: no effects on mitochondrial membrane potential
mitochondrial membrane potential [1, 7]: caused dissipation of the mitochondrial membrane potential
mitochondrial membrane potential [2]: caused dissipation of the mitochondrial membrane potential
oligonucleosomal DNA fragmentation [4]: caused an increase
PARP cleavage [5]: cleaved to its activated form
